Results: publication PMC10221074, “Functional Profiling of the A-Family of Venom Peptides from the Wolf Spider Lycosa shansia” (Toxins, 2023)

Key:
[1] = test system: Escherichia coli BL21(DE3); test: Antibacterial growth assay (OD600); conditions: for Bacterial growth relative to medium, E. coli, replicate 1 / Bacterial growth relative to medium, E. coli, replicate 2 / Bacterial growth relative to medium, E. coli, replicate 3: OD600, medium = 100, MH II broth, 37 °C, peptide 200 µM mixed 50 µL + 50 µL with bacteria, Figure 7: 48 h; for Bacterial growth relative to medium, E. coli, replicate 1: replicate column 1; for Bacterial growth relative to medium, E. coli, replicate 2: replicate column 2; for Bacterial growth relative to medium, E. coli, replicate 3: replicate column 3
Experimental: (§1) Cryo-conserved cultures of selected bacterial strains (Table 4) were transferred to Tryptic Soy Agar (TSA) plates (Carl Roth) with a sterile inoculation loop, sealed with Parafilm (BEMIS, Neenah, WI, USA), and incubated for 1–2 days at 37 °C depending on growth. Single colonies were picked and transferred into 2–3 mL of the Mueller–Hinton II (MH II) broth (BD, Heidelberg, Germany). The bacteria were cultivated overnight, subcultured on fresh medium and grown for 3–4 h before testing at 37 °C, with shaking at 180 rpm. We measured the optical density at 600 nm (OD600) of 1 mL of the bacterial suspensions in polystyrene cuvettes (SARSTED, Nümbrecht, Germany) using an Ultrospec 10 spectrophotometer (Biochrome, Cambridge, UK). We then diluted them with the MH II medium to the preferred OD600 (Table 2). The peptides were dissolved in DMSO to generate 10 mmol/L stocks and diluted with the MH II medium to 200 µM before the assay. We used 10 µg/mL (~40 µg/mL for S. epidermidis) gentamicin and colistin (Sigma-Aldrich, Taufkirchen, Germany), DMSO and the medium only as controls. The bacteria were transferred to 96-multiwell plates with a final volume of 100 µL per well (50 µL bacterial suspension, and 50 µL test peptide). The OD600 was measured at 0, 24 and 48 h using a BioTek Eon microplate reader followed by analysis with Gen5 v2.09.

[2] = test system: Pseudomonas aeruginosa DSM 1117; test: Antibacterial growth assay (OD600); conditions: for Bacterial growth relative to medium, P. aeruginosa (1117), replicate 1 / Bacterial growth relative to medium, P. aeruginosa (1117), replicate 2 / Bacterial growth relative to medium, P. aeruginosa (1117), replicate 3: OD600, medium = 100, MH II broth, 37 °C, peptide 200 µM mixed 50 µL + 50 µL with bacteria, Figure 7: 48 h; for Bacterial growth relative to medium, P. aeruginosa (1117), replicate 1: replicate column 1; for Bacterial growth relative to medium, P. aeruginosa (1117), replicate 2: replicate column 2; for Bacterial growth relative to medium, P. aeruginosa (1117), replicate 3: replicate column 3
Experimental: as §1

[3] = test system: Pseudomonas aeruginosa DSM 50071; test: Antibacterial growth assay (OD600); conditions: OD600, medium = 100, MH II broth, 37 °C, peptide 200 µM mixed 50 µL + 50 µL with bacteria, Figure 7: 48 h; for Bacterial growth relative to medium, P. aeruginosa (50071), replicate 1: replicate column 1; for Bacterial growth relative to medium, P. aeruginosa (50071), replicate 2: replicate column 2; for Bacterial growth relative to medium, P. aeruginosa (50071), replicate 3: replicate column 3
Experimental: as §1

[4] = test system: Micrococcus luteus DSM 20030; test: Antibacterial growth assay (OD600); conditions: for Bacterial growth relative to medium, M. luteus, replicate 1 / Bacterial growth relative to medium, M. luteus, replicate 2 / Bacterial growth relative to medium, M. luteus, replicate 3: OD600, medium = 100, MH II broth, 37 °C, peptide 200 µM mixed 50 µL + 50 µL with bacteria, Figure 7: 48 h; for Bacterial growth relative to medium, M. luteus, replicate 1: replicate column 1; for Bacterial growth relative to medium, M. luteus, replicate 2: replicate column 2; for Bacterial growth relative to medium, M. luteus, replicate 3: replicate column 3
[5] = test system: Staphylococcus aureus DSM 2569; test: Antibacterial growth assay (OD600); conditions: for Bacterial growth relative to medium, S. aureus, replicate 1 / Bacterial growth relative to medium, S. aureus, replicate 2 / Bacterial growth relative to medium, S. aureus, replicate 3: OD600, medium = 100, MH II broth, 37 °C, peptide 200 µM mixed 50 µL + 50 µL with bacteria, Figure 7: 48 h; for Bacterial growth relative to medium, S. aureus, replicate 1: replicate column 1; for Bacterial growth relative to medium, S. aureus, replicate 2: replicate column 2; for Bacterial growth relative to medium, S. aureus, replicate 3: replicate column 3
Experimental: as §1

[6] = test system: panel of seven bacterial strains; test: Antibacterial growth assay (OD600), statements on the whole panel; type: cell-based; conditions: growth after 48 h
A/Hessen/1/2003 (H3N2) = type: cell-based, influenza virus
[7] = test system: B/Malaysia/2506/2004 (B-Mal); type: cell-based, influenza virus
A/Hamburg/05/2009 (H1N1) = type: cell-based, influenza virus
[8] = test system: Staphylococcus epidermidis DSM 28319; test: Antibacterial growth assay (OD600); conditions: for Bacterial growth relative to medium, S. epidermidis, replicate 1 / Bacterial growth relative to medium, S. epidermidis, replicate 2 / Bacterial growth relative to medium, S. epidermidis, replicate 3: OD600, medium = 100, MH II broth, 37 °C, peptide 200 µM mixed 50 µL + 50 µL with bacteria, Figure 7: 48 h; for Bacterial growth relative to medium, S. epidermidis, replicate 1: replicate column 1; for Bacterial growth relative to medium, S. epidermidis, replicate 2: replicate column 2; for Bacterial growth relative to medium, S. epidermidis, replicate 3: replicate column 3
[9] = test system: Listeria monocytogenes DSM 20600; test: Antibacterial growth assay (OD600); conditions: for Antibacterial activity (in words): L. monocytogenes DSM 20600, growth after 48 h; for Bacterial growth relative to medium, L. monocytogenes, replicate 1 / Bacterial growth relative to medium, L. monocytogenes, replicate 2 / Bacterial growth relative to medium, L. monocytogenes, replicate 3: OD600, medium = 100, MH II broth, 37 °C, peptide 200 µM mixed 50 µL + 50 µL with bacteria, Figure 7: 48 h; for Bacterial growth relative to medium, L. monocytogenes, replicate 1: replicate column 1; for Bacterial growth relative to medium, L. monocytogenes, replicate 2: replicate column 2; for Bacterial growth relative to medium, L. monocytogenes, replicate 3: replicate column 3
Experimental: as §1

| Sequence | Bacterial growth relative to medium, E. coli, replicate 1 [1] | Bacterial growth relative to medium, E. coli, replicate 2 [1] | Bacterial growth relative to medium, E. coli, replicate 3 [1] | Bacterial growth relative to medium, P. aeruginosa (1117), replicate 1 [2] | Bacterial growth relative to medium, P. aeruginosa (1117), replicate 2 [2] | Bacterial growth relative to medium, P. aeruginosa (1117), replicate 3 [2] | Bacterial growth relative to medium, P. aeruginosa (50071), replicate 1 [3] | Bacterial growth relative to medium, P. aeruginosa (50071), replicate 2 [3] | Bacterial growth relative to medium, P. aeruginosa (50071), replicate 3 [3] | Bacterial growth relative to medium, M. luteus, replicate 1 [4] | Bacterial growth relative to medium, M. luteus, replicate 2 [4] | Bacterial growth relative to medium, M. luteus, replicate 3 [4] | Bacterial growth relative to medium, S. aureus, replicate 1 [5] | Bacterial growth relative to medium, S. aureus, replicate 2 [5] | Bacterial growth relative to medium, S. aureus, replicate 3 [5] | Antibacterial activity over the panel (in words) [6] | Viability of infected cells relative to aprotinin, Replicate 1 (A/Hessen/1/2003 (H3N2)) | Viability of infected cells relative to aprotinin, Replicate 2 (A/Hessen/1/2003 (H3N2)) | Viability of infected cells relative to aprotinin, Replicate 3 (A/Hessen/1/2003 (H3N2)) | Viability of infected cells relative to aprotinin, Replicate 1 [7] | also measured |
| --- | --- | --- | --- | --- | --- | --- | --- | --- | --- | --- | --- | --- | --- | --- | --- | --- | --- | --- | --- | --- | --- |
| SLLGLLDVVKNKVGQIGLL [LS-AMP-A3] | 114.847 | 118.887 | 89.3889 | 63.3724 | 74.5214 | 66.198 | 100.315 | 112.866 | 88.8092 | 106.28 | 132.545 | 67.7188 | 77.3106 | 83.4859 | 97.1568 | limited activity | 0.1081 | 0.01008 | 0.02318 | 0.05676 | Antibacterial activity (in words) ([2]; P. aeruginosa DSM 1117, growth after 48 h): less effective; Viability of infected cells relative to aprotinin, Replicate 2 [7]: 0.05168; Viability of infected cells relative to aprotinin, Replicate 3 [7]: 0.08362; Viability of infected cells relative to aprotinin, Replicate 1 (A/Hamburg/05/2009 (H1N1)): 0.0465; Viability of infected cells relative to aprotinin, Replicate 2 (A/Hamburg/05/2009 (H1N1)): 0.03476; Viability of infected cells relative to aprotinin, Replicate 3 (A/Hamburg/05/2009 (H1N1)): 0.04494; Bacterial growth relative to medium, S. epidermidis, replicate 1 [8]: 125.081; Bacterial growth relative to medium, S. epidermidis, replicate 2 [8]: 166.552; Bacterial growth relative to medium, S. epidermidis, replicate 3 [8]: 95.4096; Antibacterial activity (in words) [9]: less effective; Bacterial growth relative to medium, L. monocytogenes, replicate 1 [9]: 59.9369; Bacterial growth relative to medium, L. monocytogenes, replicate 2 [9]: 117.418; Bacterial growth relative to medium, L. monocytogenes, replicate 3 [9]: 68.2929 |
| SLLGLLDVVKNTVGQ [LS-AMP-A11] | 64.587 | 63.905 | 36.8825 | 82.0725 | 95.9276 | 84.5049 | 97.4528 | 114.818 | 88.0117 | 56.0386 | 92.3422 | 31.1812 | 50.8023 | 58.8947 | 79.7231 | inhibited the growth of most of the bacteria except two | 0.1919 | 0.09823 | 0.08306 | 0.04707 | Antibacterial activity (in words) ([1]; E. coli BL21(DE3), growth after 48 h): able to decrease the growth; Antibacterial activity (in words) ([4]; M. luteus DSM 20030, growth after 48 h): able to decrease the growth; Antibacterial activity (in words) ([5]; S. aureus DSM 2569, growth after 48 h): able to decrease the growth; Viability of infected cells relative to aprotinin, Replicate 2 [7]: 0.04802; Viability of infected cells relative to aprotinin, Replicate 3 [7]: 0.0552; Viability of infected cells relative to aprotinin, Replicate 1 (A/Hamburg/05/2009 (H1N1)): 0.05004; Viability of infected cells relative to aprotinin, Replicate 2 (A/Hamburg/05/2009 (H1N1)): 0.04235; Viability of infected cells relative to aprotinin, Replicate 3 (A/Hamburg/05/2009 (H1N1)): 0.04417; Viability of infected cells relative to aprotinin, Replicate 4 (A/Hamburg/05/2009 (H1N1); […], replicate 4 (additional internal control)): 0.03789; Viability of infected cells relative to aprotinin, Replicate 5 (A/Hamburg/05/2009 (H1N1); […], replicate 5 (additional internal control)): 0.01667; Bacterial growth relative to medium, S. epidermidis, replicate 1 [8]: 49.2953; Bacterial growth relative to medium, S. epidermidis, replicate 2 [8]: 44.2655; Bacterial growth relative to medium, S. epidermidis, replicate 3 [8]: 33.4715; Antibacterial activity (in words) ([8]; S. epidermidis DSM 28319, growth after 48 h): able to decrease the growth; Antibacterial activity (in words) [9]: able to decrease the growth; Bacterial growth relative to medium, L. monocytogenes, replicate 1 [9]: 57.2028; Bacterial growth relative to medium, L. monocytogenes, replicate 2 [9]: 67.6393; Bacterial growth relative to medium, L. monocytogenes, replicate 3 [9]: 84.2183 |
